# Molecular target: recombinant 15-PGDH (Homo sapiens (Human), UniProt P15428)
# Assay: inhibition of enzymatic activity of recombinant 15-PGDH, in vitro assay
# Assay type: biochemical
# Details: Enzyme Inhibitor IC50 (nM) at 1 nM 15-PGDH, 1 nM recombinant 15-PGDH
# Text: This Example provides data on a group of structural analogues of SW033291. Data provided is the IC50 of each compound for inhibiting enzymatic activity of recombinant 15-PGDH in an in vitro assay. Recombinant 15-PGDH is human unless otherwise specified. Additionally, the example provides aqueous solubility data for selected analogues in pH 7 or pH 4 citrate buffer solution.
# recombinant 15-PGDH, sequence (P15428 whole entry): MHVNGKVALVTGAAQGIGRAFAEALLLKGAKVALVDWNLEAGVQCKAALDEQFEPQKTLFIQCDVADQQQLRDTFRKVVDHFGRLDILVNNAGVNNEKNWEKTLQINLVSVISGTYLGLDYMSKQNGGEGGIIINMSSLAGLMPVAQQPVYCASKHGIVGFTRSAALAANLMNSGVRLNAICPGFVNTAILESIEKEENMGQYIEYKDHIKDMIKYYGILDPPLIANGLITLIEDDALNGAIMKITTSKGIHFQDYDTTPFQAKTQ
row,Structure (SMILES),IC50
1,"CCCC[S+]([O-])c1sc2nc(-c3cccnc3)nc(-c3ccccc3)c2c1N (single isomer, unassigned) [74A, 6-(butylsulfinyl)-4-phenyl-2-(pyridin-3-yl)thieno[2,3-d]pyrimidin-5-amine]",0.52 nM
2,"CCCC[S+]([O-])c1sc2nc(-c3cccnc3)nc(-c3ccccc3)c2c1N (single isomer, unassigned) [74B, 6-(butylsulfinyl)-4-phenyl-2-(pyridin-3-yl)thieno[2,3-d]pyrimidin-5-amine]",28 nM

# Same assay, conditions: Enzyme Inhibitor IC50 (nM) at 5 nM 15-PGDH, 5 nM recombinant 15-PGDH
row,Structure (SMILES),IC50
1,CCCC[S+]([O-])c1sc2nc(-c3ccc(OC)nc3)cc(-c3ccccc3)c2c1N (centres unmarked) [compound 23],4 to 20 nM
2,CCCC[S+]([O-])c1sc2nc(C3CC3)cc(-c3ccccc3)c2c1N (centres unmarked) [compound 25],4 to 20 nM

# Same assay, conditions: read-out: Enzyme Inhibitor IC50 (nM) at 1 nM 15-PGDH; 1 nM recombinant 15-PGDH
row,Structure (SMILES),IC50
1,CCCC[S@@+]([O-])c1sc2nc(-c3cccnc3)cc(-c3cnc(C)n3C)c2c1N [38A],0.76 nM
2,CCCC[S@+]([O-])c1sc2nc(-c3cccnc3)cc(-c3cnc(C)n3C)c2c1N [38B],27 nM
3,CCCC[S@@+]([O-])c1sc2nc(-c3cncnc3)cc(-c3cnc(C)n3C)c2c1N [39A],0.72 nM
4,CCCC[S@+]([O-])c1sc2nc(-c3cncnc3)cc(-c3cnc(C)n3C)c2c1N [39B],> 100 nM
5,CCCC[S@@+]([O-])c1sc2nc(-c3cccnc3)cc(-c3ccccc3)c2c1N [41A],0.73 nM
6,CCCC[S@+]([O-])c1sc2nc(-c3cccnc3)cc(-c3ccccc3)c2c1N [41B],27 nM
7,CCCC[S@+]([O-])c1sc2nc(-c3cncnc3)cc(-c3ccccc3)c2c1N [42A],30 nM
8,CCCC[S@@+]([O-])c1sc2nc(-c3cncnc3)cc(-c3ccccc3)c2c1N [42B],0.59 nM
9,CCCC[S@@+]([O-])c1sc2nc(-c3cccnc3)cc(-c3cncn3C)c2c1N [43A],0.58 nM
10,CCCC[S@+]([O-])c1sc2nc(-c3cccnc3)cc(-c3cncn3C)c2c1N [43B],> 100 nM
11,CCCC[S@@+]([O-])c1sc2nc(-c3cnn(C)c3)cc(-c3ccccc3)c2c1N [46A],0.7 nM
12,CCCC[S@+]([O-])c1sc2nc(-c3cnn(C)c3)cc(-c3ccccc3)c2c1N [46B],> 100 nM
13,CCCC[S@@+]([O-])c1sc2nc(-c3ccncn3)cc(-c3ccccc3)c2c1N [47A],0.65 nM
14,CCCC[S@+]([O-])c1sc2nc(-c3ccncn3)cc(-c3ccccc3)c2c1N [47B],79 nM
15,CCCC[S@@+]([O-])c1sc2nc(-c3nccs3)cc(-c3cn(C)cn3)c2c1N [48A],0.72 nM
16,CCCC[S@+]([O-])c1sc2nc(-c3nccs3)cc(-c3cn(C)cn3)c2c1N [48B],> 100 nM
17,COCCC[S@@+]([O-])c1sc2nc(-c3cccnc3)cc(-c3cncn3C)c2c1N [50A],0.57 nM
18,COCCC[S@+]([O-])c1sc2nc(-c3cccnc3)cc(-c3cncn3C)c2c1N [50B],> 100 nM
19,"CCCC[S@@+]([O-])c1sc2nc(-c3cccnc3)cc(-c3cnc(C4CC4)n3C)c2c1N [52A, (R)-2-(butylsulfinyl)-4-(2-cylcopropyl-1-methyl-1H-imidazol-5-yl)-6-(pyridine-3-yl)thieno[2,3-b]pyridine-3-amine]",0.75 nM

row,Structure (SMILES),IC50
1,CCCC[S@+]([O-])c1sc2nc(-c3cccnc3)cc(-c3nnc(C4CC4)n3C)c2c1N [52B],> 100 nM
2,CCCC[S@@+]([O-])c1sc2nc(-c3cccnc3)cc(-c3cccnc3)c2c1N [54A],0.45 nM
3,CCCC[S@+]([O-])c1sc2nc(-c3cccnc3)cc(-c3cccnc3)c2c1N [54B],> 100 nM
4,CCCC[S@@+]([O-])c1sc2nc(-c3cccnc3)cc(-c3ccccn3)c2c1N [58A],0.55 nM
5,CCCC[S@+]([O-])c1sc2nc(-c3cccnc3)cc(-c3ccccn3)c2c1N [58B],0.13 nM
6,CCCC[S@@+]([O-])c1sc2nc(-c3cnc(NC)nc3)cc(-c3ccccc3)c2c1N [60A],0.5 nM
7,CCCC[S@+]([O-])c1sc2nc(-c3cnc(NC)nc3)cc(-c3ccccc3)c2c1N [60B],41 nM
8,CCCC[S@@+]([O-])c1sc2nc(-c3cnc(N)nc3)cc(-c3ccc(F)cc3)c2c1N [61A],0.44 nM
9,CCCC[S@+]([O-])c1sc2nc(-c3cnc(N)nc3)cc(-c3ccc(F)cc3)c2c1N [61B],24 nM
10,CCCC[S@@+]([O-])c1sc2nc(-c3ccc(N)nc3)cc(-c3ccccc3)c2c1N [62A],0.56 nM
11,CCCC[S@+]([O-])c1sc2nc(-c3ccc(N)nc3)cc(-c3ccccc3)c2c1N [62B],64 nM
12,CCCC[S@@+]([O-])c1sc2nc(-c3cnc(N)nc3)cc(-c3ccccc3)c2c1N [64A],0.36 nM
13,CCCC[S@+]([O-])c1sc2nc(-c3cnc(N)nc3)cc(-c3ccccc3)c2c1N [64B],> 100 nM
14,COCCC[S@@+]([O-])c1sc2nc(-c3cnc(N)nc3)cc(-c3ccccc3)c2c1N [65A],0.59 nM
15,COCCC[S@+]([O-])c1sc2nc(-c3cnc(N)nc3)cc(-c3ccccc3)c2c1N [65B],30 nM
16,COCCC[S@@+]([O-])c1sc2nc(-c3cccnc3)cc(-c3ccccc3)c2c1N [68A],0.48 nM
17,COCCC[S@+]([O-])c1sc2nc(-c3cccnc3)cc(-c3ccccc3)c2c1N [68B],> 100 nM
18,COCCC[S@@+]([O-])c1sc2nc(-c3cccnc3)cc(-c3cn(C)cn3)c2c1N [89A],0.77 nM
19,COCCC[S@+]([O-])c1sc2nc(-c3cccnc3)cc(-c3cn(C)cn3)c2c1N [89B],74 nM

# Same assay, conditions: read-out: Enzyme Inhibitor IC50 (nM) at 5 nM 15-PGDH; 5 nM recombinant 15-PGDH
row,Structure (SMILES),IC50
1,"CCCC[S@+]([O-])c1sc2nc(-c3nccs3)cc(-c3cn(C)c(C)n3)c2c1N (stereo in doubt) [compound 3, 2-(butylsulfinyl)-4-(1,2-dimethyl-1H-imidazol-4-yl)-6-(thiazol-2-yl)thieno[2,3-b]pyridin-3-amine]",> 500 nM
2,"CCCC[S@@+]([O-])c1sc2nc(-c3nccs3)cc(-c3cn(C)c(C)n3)c2c1N (stereo in doubt) [compound 4, 2-(butylsulfinyl)-4-(1,2-dimethyl-1H-imidazol-4-yl)-6-(thiazol-2-yl)thieno[2,3-b]pyridin-3-amine]",1.4 nM
3,"CCCC[S+]([O-])c1sc2nc(-c3nccs3)cc(-c3cn(C)c(C)n3)c2c1N (centres unmarked) [compound 2, 2-(butylsulfinyl)-4-(1,2-dimethyl-1H-imidazol-4-yl)-6-(thiazol-2-yl)thieno[2,3-b]pyridin-3-amine]",2.3 nM
4,"CCCC[S+]([O-])c1sc2nc(-c3nccs3)cc3c2c1Nc1ncncc1-3 (centres unmarked) [compound 6, 5-(butylsulfinyl)-2-(thiazol-2-yl)-6H-pyrimido[4,5-c]thieno[2,3,4-ij][2,7]naphthyridine]",86 nM
5,"CCCC[S+]([O-])c1sc2nc(-c3nccs3)cc3c4c(nc1c23)NC=NC=4 (centres unmarked) [compound 7, 5-(butylsulfinyl)-2-(thiazol-2-yl)-7H-pyrimido[4,5-c]thieno[2,3,4-ij][2,7]naphthyridine]",132 nM

# System: IL1-β treated A549 cells
# Assay: induction of PGE2 from IL1-β treated A549 cells
# Assay type: cell-based
# Details: Homo sapiens; A549 cells stimulated with IL1-β for 24 hours
row,Structure (SMILES),EC50
1,CCCC[S+]([O-])c1sc2nc(-c3cnc(N)nc3)cc(-c3ccccc3)c2c1N (centres unmarked),< 4 nM

# System: not listed separately
# Assay: metabolic stability in mouse liver microsomes
# Assay type: in vitro ADME
# Details: LC-MS, FIGS. 2 and 3
# Method: The metabolic stability was determined by incubating the compounds at a concentration of 10 μM in the presence of microsomes derived from mouse livers. Compound concentrations were monitored by HPLC/MS over time, and half-lives were calculated from the slope of the best-fit line for Ln[compound] vs time.
# Metabolite M8 is a thioamide resulting from oxidative cleavage of the thiazole ring. By contrast, 6 membered ring heteroaryls cannot form this metabolite or the toxic byproducts.
row,Structure (SMILES),metabolites formed on incubation with mouse liver microsomes
1,"CCCC[S+]([O-])c1sc2nc(-c3nccs3)cc(-c3cnc(C)n3C)c2c1N (centres unmarked) [2-(butylsulfinyl)-4-(1,2-dimethyl-1H-imidazol-5-yl)-6-(thiazol-2-yl)thieno[2,3-b]pyridin-3-amine]",formation of metabolites derived from oxidation of the thiazole

# System: not listed separately
# Assay: chemical stability of the isolated product
# Assay type: physicochemical
# Details: cyclizes completely during 10 days to Examples 6 and 7
# Text: Rather, it cyclized and oxidized as described below.
# The desired product 2-(butylsulfinyl)-4-(pyrimidin-5-yl)-6-(thiazol-2-yl)thieno[2,3-b]pyridin-3-amine (Example 5-4) is unstable and cyclizes completely during 10 days to Example 6, (5-(butylsulfinyl)-2-(thiazol-2-yl)-6H-pyrimido[4,5-c]thieno[2,3,4-ij][2,7]naphthyridine) and Example 7, (5-(butylsulfinyl)-2-(thiazol-2-yl)-7H-pyrimido[4,5-c]thieno[2,3,4-ij][2,7]naphthyridine) with Example 6 being the major product. The cyclized products are separable on preparative HPLC: 21.2×250 mm Kinetex 5 μm EVO C18 100 Å reversed phase column using a 2:1 ratio of water to CH3CN with a 10 mL/min flow rate and 100 μL injection volume.
row,Structure (SMILES),stability of the compound
1,"CCCC[S+]([O-])c1sc2nc(-c3nccs3)cc(-c3cncnc3)c2c1N (centres unmarked) [Example 5-4, 2-(butylsulfinyl)-4-(pyrimidin-5-yl)-6-(thiazol-2-yl)thieno[2,3-b]pyridin-3-amine]",unstable

# — patent US20240043440A1, “COMPOSITIONS AND METHODS OF MODULATING SHORT-CHAIN DEHYDROGENASE ACTIVITY” (CASE WESTERN RESERVE UNIVERSITY, priority 2017, published 2024)
